System: companion animals (cats and dogs)
Assay: Companion animal mobility, further addition of glucosamine
Assay type: in vivo
Set-up: dose or concentration left out as unconfirmed
Details: glucosamine added to OmegaMaine omega-3 oil; data not shown
Protocol: Cats (n=5) were given 2.5 mL (½ teaspoon) of OmegaMaine liquid omega-3 oil by adding directly to their food. Dogs (n=5) were given 5 mL (1 teaspoon) of OmegaMaine omega-3 oil by adding directly to their food. For reference, 5 mL of OmegaMaine omega-3 oil contains, minimally, 800 mg of EPA, and, minimally, 750 mg of DHA. Animals were scored on a scale of 1 to 10, where 10 was behavior like a kitten or a puppy and 1 was severe immobility. All animals in the test group average 8 years of age. Animals were evaluated prior to treatment and 2 weeks after daily treatment with OmegaMaine omega-3 oil (Table 4).

**Q.** For `N[C@H]1C(O)O[C@H](CO)[C@@H](O)[C@@H]1O` (stereo partly shown) [glucosamine], which “therapeutic benefit on mobility” value is on record?
**A.** additional therapeutic benefit
